Laboratory results published in patent US7655629B2, “Peptides and their use for the treatment of HIV infections” (priority 2002, dated 2010).
Where “and” joins values, the source holds several entries; their conditions need not be identical. Equal values may be shown once. Read-outs that look alike come from different tables or passages of the source. Positions of bridges follow the written chain, without caps; N, C: chain ends. Non-standard residues stand in square brackets, D forms with d. Residues, ends and D or L forms follow the SMILES beside them. ξ: configuration not given here. Oic(3aξ,7aξ) = O=C(O)[C@@H]1CC2CCCCC2N1; Tic = O=C(O)[C@@H]1Cc2ccccc2CN1; dTic = O=C(O)[C@H]1Cc2ccccc2CN1

What was measured:
[1] = target: T1, synthetic fusion peptide of HIV gp41 (Human immunodeficiency virus type 1 group M subtype B, UniProt P04578); test: Inhibition of fusion peptide-induced hemolysis; format: cell-based; conditions: peptides at 1000, 100 and 10 μM preincubated with 100 μM fusion peptide, human erythrocytes, hemoglobin release
T1 construct: The fusion peptide is the very amino-terminal part of gp41 consisting of about 30 amino acid residues
Procedure: The synthetic fusion peptide of HIV gp41 causes concentration-dependent hemolysis which can be measured by hemoglobin released by erythrocytes.
Peptides and any other substance binding to the fusion peptide impair its potency to lyse erythrocytes by changing its structural properties. The inhibition of fusion peptide induced hemolysis was tested as follows: Blood from healthy donors was collected in citrate monovettes and the erythrocytes were extracted by a standard centrifugation and washing protocol known to the skilled person. The final erythrocyte-containing pellett was diluted 1:100 with phosphate-saline buffer. To the peptides (10, 100, or 1000 equivalents) 20 μl of a 100 μM fusion peptide solution in 10% DMSO were added and the solution was diluted to 100 μl with phosphate-buffered saline. A 60 min incubation at 37° C. was carried out. After the preincubation the samples were transferred to 96-well plates and 100 μl of the erythrocyte suspension were added and incubated for 60 min at 37° C. […] The 96-well plate is centrifuged 5 min at 2800 rpm and of the supernatant fluid 150 μl were transferred to a flat-bottom microtiter plate, and the absorbance was measured at 450 nm. The percentage hemolysis was calculated by: [(A450 of the peptide treated sample—A450 of buffer treated sample)/(A450 of Tween-20 treated sample—A450 of buffer treated sample)]×100%.

X4-tropic HIV-1 NL4-3 = conditions: read-out: IC50 NL4-3; P4-CCR5 cells, HIV-1 NL4-3, peptide 2 h before infection, readout three days after infection
Outline: (§1)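 P4-CCR5 cells (CD4, CCR5, CXCR4, HIV-1 promoter-driven β-galactosidase) pretreated 2 h with peptide, then infected with virus containing 1 ng p24 antigen and incubated overnight. Cells washed and cultured without peptide; three days post-infection infectivity read by chemiluminescent β-galactosidase assay, in quintuplicate.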

HIV-1 NL4-3 DTV = conditions: read-out: IC50 DTV, P4-CCR5 cells, peptide 2 h before infection, readout three days after infection
Outline: as §1

[2] = rat, plasma
Procedure: (§2) Plasma was spiked resulting in concentrations of 40 μg/ml and stored at 37° C. At time points 0, 15, 30, 45, 60, 120, 180, 240 and 300 min samples of 20 μl were taken. The plasma was immediately mixed for precipitation with the two-fold volume of acetonitrile containing 0.15% (w/v) n-nonyl-β-D-glucopyranoside. Following centrifugation the supernatants were mixed with the two-fold volume of 0.1% (v/v) trifluroacetic acid. Twenty μl of these solutions were analyzed by LC-MS. Chromatography was performed using a gradient with the following eluents: eluent A: water containing 0.06% trifluroacetic acid (v/v), eluent B: acetonitrile/water 80:20 (v/v; with 0.05% trifluoroacetic acid; v/v). A C18 precolumn was used in combination with a C18 separation column (300 Å, 5 μm, 150×1 mm inner diameter) at a flow rate of 30 μl/min. HPLC eluates were ionized by the electrospray technique of a LCQ classic mass spectrometer. Areas of the detected peaks of the peptides of the present invention were measured and used for quantification by external calibration. The calibration curve was linear over a range from 0.5 μg/ml to 250 μg/ml plasma. Half life—defined as the period for a concentration decrease to 50% of the initial concentration—was calculated from the slope of an extrapolated curve plotting the relative peptide concentration at a given time point (logarithm scale) against the incubation time. These experiments allowed the quantitative analysis of peptide concentration in plasma.

[3] = human, plasma
Procedure: as §2

[4] = cynomolgus monkey, plasma
Procedure: as §2

[5] = dog, plasma
Procedure: as §2

[6] = target: gp41 of HIV-1 NL4-3 (HIV-1 NL4-3); test: cell-based or functional assay
[7] = target: gp41 of HIV-1 NL4-3 DTV (HIV-1 NL4-3 DTV); test: cell-based or functional assay

Compound: H-LEAIPMSIPPEFLFGKPFVF-OH [VIR-175]
- inhibition of fusion peptide-induced hemolysis [1]: Dose dependent inhibition
- IC50 (X4-tropic HIV-1 NL4-3): 225 nM
- IC50 (HIV-1 NL4-3 DTV): 300 nM
- half-life [2]: 0.2 h
- half-life [3]: 5.3 h
- half-life [4]: 3 h
- half-life [5]: 17.3 h

Compound: CC[C@H](C)[C@H](NC(=O)[C@H](C)NC(=O)[C@H](CCC(=O)O)NC(=O)[C@@H](N)CC(C)C)C(=O)N1CCC[C@H]1C(=O)N[C@@H](CCSC)C(=O)N[C@@H](CO)C(=O)N[C@H](C(=O)N1CCC[C@H]1C(=O)N1CCC[C@@H]1C(=O)N[C@@H](CCC(=O)O)C(=O)N[C@H](C(=O)N[C@@H](C)C(=O)N[C@@H](Cc1ccccc1)C(=O)N[C@@H](CC(N)=O)C(=O)N[C@@H](CCCCN)C(=O)N1C2CCCCC2C[C@H]1C(=O)N[C@@H](Cc1ccccc1)C(=O)N[C@H](C(=O)N[C@@H](Cc1ccccc1)C(=O)O)C(C)C)C(C)C)[C@@H](C)CC (stereo partly drawn) [VIR-269, LEAIPMSIPpEVAFNK(Oic)FVF] (H-LEAIPMSIP[dP]EVAFNK[Oic(3aξ,7aξ)]FVF-OH)
- inhibition of fusion peptide-induced hemolysis [1]: Dose dependent inhibition
- IC50 (X4-tropic HIV-1 NL4-3): 2610 nM
- IC50 (HIV-1 NL4-3 DTV): 900 nM

Compound: H-LEAIPMSIPPEVKFNKPFVF-OH [VIRIP, reference compound]
- inhibition of fusion peptide-induced hemolysis [1]: Dose dependent inhibition
- IC50 (X4-tropic HIV-1 NL4-3): 15000 nM
- IC50 (HIV-1 NL4-3 DTV): 22000 nM and 22200 nM
- half-life [2]: 1.7 h
- half-life [3]: 53.7 h
- half-life [4]: 5.1 h
- half-life [5]: 35.9 h

Compound: CC[C@H](C)[C@H](NC(=O)[C@H](C)NC(=O)[C@H](CCC(=O)O)NC(=O)[C@@H](N)CC(C)C)C(=O)N1CCC[C@H]1C(=O)N[C@@H](CCSC)C(=O)N[C@H]1CSSC[C@@H](C(=O)N[C@@H](CC(C)C)C(=O)N[C@@H](Cc2ccccc2)C(=O)NCC(=O)N[C@@H](CCCCN)C(=O)N2CCC[C@H]2C(=O)N[C@@H](Cc2ccccc2)C(=O)N[C@H](C(=O)N[C@@H](Cc2ccccc2)C(=O)O)C(C)C)NC(=O)[C@H](CCC(=O)O)NC(=O)[C@@H]2CCCN2C(=O)[C@@H]2CCCN2C(=O)[C@H]([C@@H](C)CC)NC1=O [VIR-274] (H-LEAIPMCIPPECLFGKPFVF-OH; disulfide 7-12)
- IC50 (X4-tropic HIV-1 NL4-3): 576 nM
- IC50 (HIV-1 NL4-3 DTV): 1420 nM
- half-life [2]: 0.1 h
- half-life [3]: 2 h
- half-life [4]: 2.8 h
- half-life [5]: 9.5 h

Compound: CC[C@H](C)[C@H](NC(=O)[C@H](C)NC(=O)[C@H](CCC(=O)O)NC(=O)[C@@H](N)CC(C)C)C(=O)N1CCC[C@H]1C(=O)N[C@H]1CSSC[C@@H](C(=O)N[C@@H](Cc2ccccc2)C(=O)N[C@@H](CC(C)C)C(=O)N[C@@H](Cc2ccccc2)C(=O)NCC(=O)N[C@@H](CCCCN)C(=O)N2CCC[C@H]2C(=O)N[C@@H](Cc2ccccc2)C(=O)N[C@H](C(=O)N[C@@H](Cc2ccccc2)C(=O)O)C(C)C)NC(=O)[C@@H]2CCCN2C(=O)[C@@H]2CCCN2C(=O)[C@H]([C@@H](C)CC)NC(=O)[C@H](CO)NC1=O [VIR-345] (H-LEAIPCSIPPCFLFGKPFVF-OH; disulfide 6-11)
- IC50 (X4-tropic HIV-1 NL4-3): 298 nM
- IC50 (HIV-1 NL4-3 DTV): 376 nM
- half-life [2]: 0.1 h
- half-life [3]: 5.6 h
- half-life [4]: 5.1 h
- half-life [5]: 10.7 h

Compound: CC[C@H](C)[C@H](NC(=O)[C@H](C)NC(=O)[C@H](CCC(=O)O)NC(=O)[C@@H](N)CC(C)C)C(=O)N1CCC[C@H]1C(=O)N[C@H]1CSSC[C@@H](C(=O)N[C@H](C(=O)NCC(=O)N[C@@H](Cc2ccccc2)C(=O)NCC(=O)N[C@@H](CCCCN)C(=O)N2CCC[C@H]2C(=O)N[C@@H](Cc2ccccc2)C(=O)N[C@H](C(=O)N[C@@H](Cc2ccccc2)C(=O)O)C(C)C)C(C)C)NC(=O)[C@H]2CCCN2C(=O)[C@@H]2CCCN2C(=O)[C@H]([C@@H](C)CC)NC(=O)[C@H](CO)NC1=O [VIR-348, LEAIPCSIPpCVGFGKPFVF] (H-LEAIPCSIP[dP]CVGFGKPFVF-OH; disulfide 6-11)
- IC50 (X4-tropic HIV-1 NL4-3): 326 nM
- IC50 (HIV-1 NL4-3 DTV): 541 nM
- half-life [2]: 0.2 h
- half-life [3]: 3.3 h
- half-life [4]: 3 h
- half-life [5]: 9.3 h

Compound: VIR-576 (peptide)
- IC50 NL4-3 (HIV-1 infection of P4-CCR5 cells) [6]: 107 nM
- IC50 DTV (HIV-1 infection of P4-CCR5 cells) [7]: 296 nM

Compound: CC[C@H](C)[C@H](NC(=O)[C@H](CC(=O)O)NC(=O)[C@H](CCC(=O)O)NC(=O)[C@@H](N)CC(C)C)C(=O)N1CCC[C@H]1C(=O)N[C@H]1CSSC[C@@H](C(=O)N[C@H](C(=O)N[C@@H](C)C(=O)N[C@@H](Cc2ccccc2)C(=O)N[C@@H](CC(N)=O)C(=O)N[C@@H](CCCCN)C(=O)N2CCC[C@H]2C(=O)N[C@@H](Cc2ccccc2)C(=O)N[C@H](C(=O)N[C@@H](Cc2ccccc2)C(=O)O)C(C)C)C(C)C)NC(=O)[C@H]2CCCN2C(=O)[C@@H]2CCCN2C(=O)[C@H]([C@@H](C)CC)NC(=O)[C@H](CO)NC1=O [VIR-357, LEDIPCSIPpCVAFNKPFVF] (H-LEDIPCSIP[dP]CVAFNKPFVF-OH; disulfide 6-11)
- IC50 (X4-tropic HIV-1 NL4-3): 497 nM
- IC50 (HIV-1 NL4-3 DTV): 704 nM
- half-life [2]: 0.6 h
- half-life [3]: 23.3 h
- half-life [4]: 13.2 h
- half-life [5]: 71.5 h

Compound: CC[C@H](C)[C@H](NC(=O)[C@H](C)NC(=O)[C@H](CCC(=O)O)NC(=O)[C@@H](N)CC(C)C)C(=O)N1CCC[C@H]1C(=O)N[C@@H](CCSC)C(=O)N[C@@H](CO)C(=O)N[C@H]1CSSC[C@@H](C(=O)N[C@@H](Cc2ccccc2)C(=O)NCC(=O)N[C@@H](CCCCN)C(=O)N2CCC[C@H]2C(=O)N[C@@H](Cc2ccccc2)C(=O)N[C@H](C(=O)N[C@@H](Cc2ccccc2)C(=O)O)C(C)C)NC(=O)[C@H](Cc2ccccc2)NC(=O)[C@H](CCC(=O)O)NC(=O)[C@@H]2CCCN2C(=O)[C@@H]2CCCN2C1=O [VIR-568] (H-LEAIPMSCPPEFCFGKPFVF-OH; disulfide 8-13)
- IC50 (X4-tropic HIV-1 NL4-3): 367 nM
- IC50 (HIV-1 NL4-3 DTV): 552 nM
- half-life [2]: 0.1 h
- half-life [3]: 3.9 h
- half-life [4]: 2.2 h
- half-life [5]: 4 h

Compound: CC[C@H](C)[C@H](NC(=O)[C@H](C)NC(=O)[C@H](CCC(=O)O)NC(=O)[C@@H](N)CC(C)C)C(=O)N1CCC[C@H]1C(=O)N[C@H]1CSSC[C@@H](C(=O)N[C@H](C(=O)N[C@@H](C)C(=O)N2Cc3ccccc3C[C@@H]2C(=O)N[C@@H](CC(N)=O)C(=O)N[C@@H](CCCCN)C(=O)N2CCC[C@H]2C(=O)N2Cc3ccccc3C[C@@H]2C(=O)N[C@@H](Cc2ccccc2)C(=O)N[C@H](C(=O)N[C@@H](Cc2ccccc2)C(=O)O)C(C)C)C(C)C)NC(=O)[C@@H]2CCCN2C(=O)[C@@H]2CCCN2C(=O)[C@H]([C@@H](C)CC)NC(=O)[C@H](CO)NC1=O [VIR-166, LEAIPCSIPPCVA(D-Tic)NKP(D-Tic)FVF] (H-LEAIPCSIPPCVA[dTic]NKP[dTic]FVF-OH; disulfide 6-11)
- IC50 (X4-tropic HIV-1 NL4-3): 356 nM
- IC50 (HIV-1 NL4-3 DTV): 506 nM
- half-life [2]: 0.4 h
- half-life [3]: 7.6 h
- half-life [4]: 12.1 h
- half-life [5]: 11 h

Compound: CC[C@H](C)[C@H](NC(=O)[C@H](CCCCN)NC(=O)[C@H](CCC(=O)O)NC(=O)[C@@H](N)CC(C)C)C(=O)N1CCC[C@H]1C(=O)N[C@@H](CCSC)C(=O)N[C@@H](CO)C(=O)N[C@H](C(=O)N1CCC[C@H]1C(=O)N1CCC[C@@H]1C(=O)N[C@@H](CCC(=O)O)C(=O)N[C@H](C(=O)N1Cc2ccccc2C[C@H]1C(=O)N[C@@H](Cc1ccccc1)C(=O)N[C@@H](CC(N)=O)C(=O)N[C@@H](CCCCN)C(=O)N1CCC[C@H]1C(=O)N[C@@H](Cc1ccccc1)C(=O)N[C@H](C(=O)N[C@@H](Cc1ccccc1)C(=O)O)C(C)C)C(C)C)[C@@H](C)CC [VIR-455, LEKIPMSIPpEV(L-Tic)FNKPFVF] (H-LEKIPMSIP[dP]EV[Tic]FNKPFVF-OH)
- IC50 (X4-tropic HIV-1 NL4-3): 134 nM
- IC50 (HIV-1 NL4-3 DTV): 353 nM
- half-life [2]: 0.3 h
- half-life [3]: 5.8 h
- half-life [4]: 6.8 h
- half-life [5]: 8.6 h

Compound: CC[C@H](C)[C@H](NC(=O)[C@@H]1CCCN1C(=O)[C@@H](NC(=O)[C@H](CCCCN)NC(=O)[C@H](CCC(=O)O)NC(=O)[C@@H](N)CC(C)C)[C@@H](C)CC)C(=O)NCC(=O)N[C@H](C(=O)N1CCC[C@H]1C(=O)N1CCC[C@@H]1C(=O)N[C@@H](CCC(=O)O)C(=O)N[C@H](C(=O)N1Cc2ccccc2C[C@H]1C(=O)N[C@@H](Cc1ccccc1)C(=O)N[C@@H](CC(N)=O)C(=O)N[C@@H](CCCCN)C(=O)N1CCC[C@H]1C(=O)N[C@@H](Cc1ccccc1)C(=O)N[C@H](C(=O)N[C@@H](Cc1ccccc1)C(=O)O)C(C)C)C(C)C)[C@@H](C)CC [VIR-484, LEKIPIGIPpEV(L-Tic)FNKPFVF] (H-LEKIPIGIP[dP]EV[Tic]FNKPFVF-OH)
- IC50 (X4-tropic HIV-1 NL4-3): 100 nM
- IC50 (HIV-1 NL4-3 DTV): 339 nM
- half-life [2]: 0.2 h
- half-life [3]: 5 h
- half-life [4]: 3.6 h
- half-life [5]: 12.4 h

Compound: VIRIP (peptide)
- IC50 NL4-3 (HIV-1 infection of P4-CCR5 cells) [6]: 15000 nM
- IC50 DTV (HIV-1 infection of P4-CCR5 cells) [7]: 22200 nM
